Consider 13 compounds from patent US5696112A, “Fused heterocyclic azepines as vasopressin antagonists” (American Cyanamid Company, priority 1995, dated 1997).

In assay [1] the target is T1, Rat Hepatic V1 Receptors (vasopressin V1) (Rattus norvegicus, UniProt P30560).
T1 construct: Rat liver plasma membranes expressing the vasopressin V1 receptor subtypes are isolated by sucrose density gradient; from tissue; host or cells: rat liver plasma membranes
The experiment in a line: Binding Assay to Rat Hepatic V1 Receptors. Conditions: rat hepatic V1, [3H]vasopressin. The protocol:
Binding Assay to Rat Hepatic V1 Receptors
Rat liver plasma membranes expressing the vasopressin V1 receptor subtypes are isolated by sucrose density gradient according to the method described by Lesko et al., (1973). These membranes are quickly suspended in 50.0 mMTris.HCl buffer, pH 7.4, containing 0.2% bovine serum albumin (BSA) and 0.1 mM phenylmethylsulfonylfluoride (PMSF) and kept frozen at -70° C. until used in subsequent binding experiments. For binding experiments, the following is added to the wells of a ninety-six well format microtiter plate: 100 μl of 100.0 mM Tris.HCl buffer containing 10.0 mM MgCl2, 0.2% heat inactivated BSA and a mixture of protease inhibitors: leupeptin, 1.0 mg %; aprotinin, 1.0 mg %, 1,10-phenanthroline,2.0 mg %; trypsin inhibitor, 10.0 mg % and 0.1 mM PMSF, 20.0 μl of [phenylalanyl-3,4,5-^3 H]vasopressin (S.A. 45.1 Ci/mmole) at 0.8 nM, and the reaction initiated by the addition of 80 μl of tissue membranes containing 20 μg of tissue protein. The plates are kept undisturbed on the bench top at room temperature for 120 min. to reach equilibrium. Nonspecific samples are assayed in the presence of 0.1 μM of the unlabeled antagonist phenylalanylvasopressin, added in 20.0 μl volume to a final incubation volume of 200 μl. Upon completion of binding, the content of each well is filtered off, using a Brandel® cell Harvester (Gaithersburg, Md.). The radioactivity trapped on the filter disk by the ligand-receptor complex is assessed by liquid scintillation counting in a Packard LS Counter, with an efficiency of 65% for tritium. The data are analyzed for IC50 values by the LUNDON-2 program for competition (LUNDON SOFTWARE, OH).

The target in assay [2] is T2, Rat Kidney Medullary V2 Receptors (vasopressin V2) (Rattus norvegicus, UniProt Q00788).
T2 construct: Medullary tissues from rat kidneys are dissected out; from tissue; host or cells: rat kidney medulla membranes
T2 sequence (Q00788 whole entry): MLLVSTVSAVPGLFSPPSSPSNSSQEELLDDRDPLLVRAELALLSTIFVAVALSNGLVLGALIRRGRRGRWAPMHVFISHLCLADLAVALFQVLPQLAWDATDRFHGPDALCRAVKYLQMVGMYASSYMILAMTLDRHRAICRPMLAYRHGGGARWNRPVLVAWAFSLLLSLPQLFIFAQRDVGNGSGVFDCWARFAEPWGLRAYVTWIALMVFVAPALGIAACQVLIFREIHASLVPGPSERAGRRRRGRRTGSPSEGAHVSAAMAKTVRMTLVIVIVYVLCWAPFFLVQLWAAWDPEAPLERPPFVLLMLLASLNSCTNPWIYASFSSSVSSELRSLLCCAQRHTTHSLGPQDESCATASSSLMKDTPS
The assay is described as follows: Binding Assay to Rat Kidney Medullary V2 Receptors. Conditions: rat kidney medullary V2, [3H]Arg8-vasopressin. The protocol:
Binding Assay to Rat Kidney Medullary V2 Receptors
Medullary tissues from rat kidneys are dissected out, cut into small pieces and let soak in a […] sodium chloride solution containing 1.0 mM EDTA with many changes of the liquid phase, until the solution is clear of blood. The tissue is homogenized in a 0.25M sucrose solution containing 1.0 mM EDTA and 0.1 mM PMSF using a Potter-Elvehjem homogenizer with a teflon pestle. The homogenate is filtered through several layers (4 layers) of cheese cloth. The filtrate is rehomogenized using a dounce homogenizer, with a tight fitting pestle. The final homogenate is contrifuged at 1500×g for 15 min. The nuclear pellet is discarded and the supernatant fluid recentrifuged at 40,000×g for 30 min. The resulting pellet formed contains a dark inner part with the exterior, slightly pink. The pink outer part is suspended in a small amount of 50.0 mMTris.HCl buffer, pH 7.4. The protein content is determined by the Lowry's method (Lowry et al, J. Biol. Chem., 1953). The membrane suspension is stored at -70° C., in 50.0 mMTris.HCl, containing 0.2% inactivated BSA and 0.1 mM PMSF in aliquots of 1.0 ml containing 10.0 mg protein per ml of suspension until use in subsequent binding experiments.
For binding experiments, the following is added in μl volume to wells of a 96 well format of a microtiter plate: 100.0 μl of 100.0 mM Tris.HCl buffer containing 0.2% heat inactivated BSA, 10.0 mM MgCl2 and a mixture of protease inhibitors: leupeptin, 1.0 mg %; aprotinin, 1.0 mg %; 1,10-phenanthroline, 2.0 mg %; trypsin inhibitor, 10.0 mg % and 0.1 mM PMSF, 20.0 μl of [^3 H]Arginine^8, vasopressin (S.A. 75.0 Ci/mmole) at 0.8 nM and the reaction initiated by the addition of 80.0 μl of tissue membranes (200.0 μg tissue protein). The plates are left undisturbed on the bench top for 120 min. to reach equilibrium. Non-specific binding is assessed in the presence of 1.0 μM of unlabeled ligand, added in 20 μl volume. For test compounds, these are solubilized in 50% dimethylsulfoxide (DMSO) and added in 20.0 μl volume to a final incubation volume of 200 μl. Upon completion of binding, the content of each well is filtered off, using a Brandel® cell Harvester (Gaithersburg, Md.). The radioactivity trapped on the filter disk by the ligand-receptor complex is assessed by liquid scintillation counting in a Packard LS Counter, with an efficiency of 65% for tritium. The data are analyzed for IC50 values by the LUNDON-2 program for competition (LUNDON SOFTWARE, OH).

A further assay relates to Vasopressin V2. The assay is described as follows: Vasopressin V2 Antagonist Activity in Conscious Hydrated Rats. It counts as in vivo, rat. The following applies: AVP 0.4 μg/kg i.p. The protocol:
Vasopressin V2 Antagonist Activity in conscious Hydrated Rats Conscious hydrated rats are treated with compounds under study from 0.1 to 100 mg/kg orally or vehicle. Two to four rats are used for each compound. One hour later, arginine vasopressin (AVP, antidiuretic hormone, ADH) dissolved in peanut oil is administered at 0.4 μg/kg intraperitoneally. Two rats in each test would not receive arginine vasopressin but only the vehicle (peanut oil) to serve as water-loading control. Twenty minutes later each rat is given 30 mL/kg of deionized water orally by gavage and is placed individually in a metabolic cage equipped with a funnel and a graduated glass cylinder to collect urine for four hours. Urine volume is measured and osmolality analyzed by use of a Fiske One-Ten osmometer (Fiske Assoc., Norwood, Mass. USA). Urinary sodium, potassium, and chloride are analyzed by use of ion-specific electrodes in a Beckman E3 (Electrolyte 3) Analyzer. In the following results, […] and […] osmolality relative to AVP-control indicates activity.

In a further assay the target is T3, oxytocin receptors (Rattus norvegicus, UniProt P70536).
T3 construct: The uteri are dissected out, cleaned of fat and connective tissues; from tissue; host or cells: uterus membranes of DES-treated female Sprague-Dawley rats
T3 sequence (P70536 1-388): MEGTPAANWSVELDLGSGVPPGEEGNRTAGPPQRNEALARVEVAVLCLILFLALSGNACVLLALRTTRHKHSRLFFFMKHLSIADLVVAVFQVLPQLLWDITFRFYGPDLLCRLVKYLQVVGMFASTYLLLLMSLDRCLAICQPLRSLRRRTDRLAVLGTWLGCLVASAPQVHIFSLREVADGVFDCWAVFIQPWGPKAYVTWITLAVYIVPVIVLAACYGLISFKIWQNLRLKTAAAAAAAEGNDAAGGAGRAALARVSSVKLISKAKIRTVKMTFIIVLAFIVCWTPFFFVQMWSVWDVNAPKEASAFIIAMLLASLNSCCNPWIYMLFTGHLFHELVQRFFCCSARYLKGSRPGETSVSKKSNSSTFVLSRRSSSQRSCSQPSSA
The experiment in a line: Oxytocin Receptor Binding. Also noted: species or system Sprague-Dawley rats. The protocol: Oxytocin Receptor Binding
Female Sprague-Dawley rats weighing approximately 200-250 g are injected intramuscularly (i.m.) with 0.3 mg/kg of body weight of diethylstilbestrol (DES). The rats are sacrificed 18 hours later under pentobarbital anesthesia. The uteri are dissected out, cleaned of fat and connective tissues and rinsed in 50 ml of normal saline. The tissue pooled from six rats is homogenized in 50 ml of 0.01 mMTris.HCl, containing 0.5 mM dithiothreitol and 1.0 mM EDTA, adjusted to pH 7.4, using a polytron at setting 6 with three passes of 10 sec each. The homogenate is passed through two (2) layers of cheesecloth and the filtrate centrifuged at 1000×g for 10 min. The clear supernatant is removed and recentrifuged at 165,000×g for 30 min. The resulting pellet containing the oxytocin receptors is resuspended in 50.0 mM Tris.HCl containing 5.0 mM MgCl2 at pH 7.4, to give a protein concentration of 2.5 mg/ml of tissue suspension. This preparation is used in subsequent binding assays with [^3 H]Oxytocin.
Binding of 3,5-[^3 H]Oxytocin ([^3 H]OT) to its receptors is done in microtiter plates using [^3 H]OT, at various concentrations, in an assay buffer of 50.0 mM Tris.HCl, pH 7.4 and containing 5.0 mM MgCl2, and a mixture of protease inhibitors: BSA, 0.1 mg; aprotinin, 1.0 mg; 1,10-phenanthroline, 2.0 mg; […], 10.0 mg; and PMSF, 0.3 mg per 100 ml of buffer solution. Nonspecific binding is determined in the presence of 1.0 uM unlabeled OT. The binding reaction is terminated after 60 min., at 22° C., by rapid filtration through glass fiber filters using a Brandel® cell harvester (Biomedical Research and Development Laboratories, Inc., Gaithersburg, Md.). Competition experiments are conducted at equilibrium using 1.0 nM [^3 H]OT and varying the concentration of the displacing agents. The concentrations of agent displacing 50% of [^3 H]OT at its sites (IC50) are calculated by a computer assisted LUNDON-2 program (LUNDON SOFTWARE INC., Ohio, USA).

T1 sequence (P30560 whole entry): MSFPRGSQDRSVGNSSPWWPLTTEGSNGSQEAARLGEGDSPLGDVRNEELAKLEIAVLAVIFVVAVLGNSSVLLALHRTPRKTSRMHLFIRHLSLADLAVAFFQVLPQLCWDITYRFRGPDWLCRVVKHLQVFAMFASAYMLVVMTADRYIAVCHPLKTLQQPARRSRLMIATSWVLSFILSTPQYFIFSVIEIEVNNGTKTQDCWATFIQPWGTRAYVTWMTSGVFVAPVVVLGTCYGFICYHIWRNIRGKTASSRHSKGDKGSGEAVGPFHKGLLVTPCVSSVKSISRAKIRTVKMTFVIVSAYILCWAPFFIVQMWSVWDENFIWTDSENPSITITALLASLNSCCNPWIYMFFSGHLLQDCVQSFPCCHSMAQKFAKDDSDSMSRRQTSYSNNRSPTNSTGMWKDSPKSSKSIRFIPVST

For `O=C(Nc1ccc(C(=O)N2CCCCc3sccc32)cc1)c1ccco1` [Example 4, N-[4-[(5,6,7,8-Tetrahydro-4H-thieno[3,2-b]azepin-4-yl)carbonyl]phenyl]2-furanecarboxamide], the results for the IC50 in assay [1] and in assay [2] were 0.4 µM and 1.8 µM, respectively.
For the compound `Cc1ccsc1C(=O)Nc1ccc(C(=O)N2CCCCc3sccc32)cc1` [Example 7, N-[4-[(5,6,7,8-Tetrahydro-4H-thieno[3,2-b]azepin-4-yl)carbonyl]phenyl]3-methyl-2-thiophenecarboxamide], the results for the IC50 in assay [1] and in assay [2] were 0.059 µM and 0.138 µM, respectively. In the assay with Vasopressin V2 (100 mg/kg P.O.), the “Urine Volume” value is given as 6.2 ml/4 hours.
Take `CC(C)(C)c1ccc(C(=O)Nc2ccc(C(=O)N3CCCCc4sccc43)cc2)cc1` [Example 5, N-[4-[(5,6,7,8-Tetrahydro-4H-thieno[3,2-b]azepin-4-yl)carbonyl]phenyl]4-tert-butylbenzamide]: the 50% inhibitory concentration (IC50) – broadly, the concentration that inhibits the measured activity by half – in assay [2] was determined as 21.4 µM.
Take `O=C(Nc1ccc(C(=O)N2CCCCc3sccc32)cc1)c1coc2c1C(=O)CCC2` [Example 179]: the half-maximal inhibitory concentration (IC50) stood at 1.3 µM in assay [1] and 5.5 µM in assay [2].
Regarding `CCCCc1ccc(C(=O)Nc2ccc(C(=O)N3CCCCc4sccc43)cc2)cc1` [Example 6, N-[4-[(5,6,7,8-Tetrahydro-4H-thieno[3,2-b]azepin-4-yl)carbonyl]phenyl]4-(n-butyl)benzamide], the IC50 in assay [1] is 50 µM; in assay [2] it was 3.4 µM.
On to `Cc1ccc(C(=O)Nc2ccc(C(=O)N3CCCCc4sccc43)cc2)c(C)c1` [Example 11, N-[4-[(5,6,7,8-Tetrahydro-4H-thieno[3,2-b]azepin-4-yl)carbonyl]phenyl]2,4-dimethylbenzamide], for which the IC50 in assay [1] is 0.28 µM. Also, in assay [2], the IC50 was 0.06 µM. Besides, in the assay on Vasopressin V2 (30 mg/kg P.O.), the Osmolality is on record as 1420 mOsm/kg and the “Urine Volume” value worked out at 5 ml/4 hours.
Regarding `O=C(Cc1ccccc1)Nc1ccc(C(=O)N2CCCCc3sccc32)cc1` [Example 12, N-[4-[(5,6,7,8-tetrahydro-4H-thieno[3,2-b]azepin-4-yl)carbonyl]phenyl]benzeneacetamide], the IC50 in assay [1] came out at 0.26 µM; in assay [2] it was 0.036 µM.
In the same order, the values of `O=C(Nc1ccc(C(=O)N2CCCCc3sccc32)cc1)c1ccc2[nH]ccc2c1` [Example 180] are 8 µM and 0.37 µM.
With `CCCCOc1ccc(C(=O)N2CCCCc3sccc32)cc1` [Example 233, 4-[4-(n-Butyloxy)benzoyl]-5,6,7,8-tetrahydro-4H-thieno[3,2-b]azepine], the half-maximal inhibitory concentration (IC50) on oxytocin receptors (1.0 nM [3H]oxytocin) stood at 0.95 µM. Moreover, at oxytocin receptors (10 μM), 10 µM produced 93% inhibition.
For the compound `O=C(Nc1ccc(C(=O)N2CCCCc3sccc32)cc1)c1ccc(Cl)c(Cl)c1` [Example 1, N-[4-[(5,6,7,8-Tetrahydro-4H-thieno[3,2-b]azepin-4-yl)carbonyl]phenyl]-3,4-dichlorobenzamide], the half-maximal inhibitory concentration (IC50) in assay [1] was 1.65 µM; in assay [2] it was 0.44 µM.
`Cc1ccccc1C(=O)Nc1ccc(C(=O)N2CCCCc3sccc32)cc1` [Example 3, N-[4-[(5,6,7,8-Tetrahydro-4H-thieno[3,2-b]azepin-4-yl)carbonyl]phenyl]-2-methylbenzamide] gave an IC50 in assay [1] of 0.077 µM. Further, the half-maximal inhibitory concentration (IC50) in assay [2] is 0.023 µM. In addition, in the assay on Vasopressin V2 (100 mg/kg P.O.), the Osmolality stood at 1081 mOsm/kg and the “Urine Volume” value was found to be 10 ml/4 hours.
Turning to `Cc1cccc(C(=O)Nc2ccc(C(=O)N3CCCCc4sccc43)cc2)c1C` [Example 10, N-[4-[(5,6,7,8-Tetrahydro-4H-thieno[3,2-b]azepin-4-yl)carbonyl]phenyl]2,3-dimethylbenzamide], the IC50 in assay [1] is 0.23 µM; in assay [2], 0.052 µM.
On to `Cc1ccc(C)c(C(=O)Nc2ccc(C(=O)N3CCCCc4sccc43)cc2)c1` [Example 8, N-[4-[(5,6,7,8-Tetrahydro-4H-thieno[3,2-b]azepin-4-yl)carbonyl]phenyl]2,5-dimethylbenzamide], for which the IC50 stood at 0.2 µM in assay [1] and 0.12 µM in assay [2].
